Data published in US11076595B2, “1-(n,n-disubstituted carbamoyl) 4-(substituted sulfonyl)triazolin-5-one derivative, 4-(n,n-disubstituted carbamoyl) 1-(substituted sulfonyl)triazolin-5-one derivative, and herbicide containing said derivative as active ingredient” (HOKKO CHEMICAL INDUSTRY CO., LTD., priority 2017, dated 2021).

Tests used:
Format in all cases: in vivo
[1] = test system: Echinochloa crus-galli; experiment: Test Example 11: herbicidal effect test by soil treatment in paddy field; details: 120 g/10a active ingredient, 14 days after treatment
Summary of the method: (§1)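 Puddled paddy soil with N:P:K 17:17:17 fertilizer in Wagner pots; 30 seeds per species sown at 0–1 cm, flooded to about 3 cm, kept in a glass greenhouse. Water-diluted emulsifiable concentrate dripped in immediately after sowing at 120 g a.i. per 10 are. Suppression from dry weight versus untreated at 14 days.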

[2] = test system: Lindernia pyxidaria; experiment: as above; details: 120 g/10a active ingredient, 14 days after treatment
Summary of the method: as §1

[3] = test system: Monochoria vaginalis; experiment: as above; details: 120 g/10a active ingredient, 14 days after treatment
Summary of the method: as §1

[4] = test system: Scirpus juncoides; experiment: as above; details: 120 g/10a active ingredient, 14 days after treatment
Summary of the method: as §1

[5] = test system: Echinochloa crus-galli; experiment: Test Example 12: herbicidal effect test by treatment during growing period in paddy field; details: 120 g/10a; treatment seven days after sowing in flooded paddy pot; assessed 14 days after treatment
Summary of the method: (§2)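 Puddled paddy soil in Wagner pots, 30 seeds per species sown 0-1 cm deep, flooded to about 3 cm in a greenhouse. Seven days after sowing, water-diluted emulsifiable concentrate was dripped in at 120 g active ingredient per 10 are. Suppression (%) from dry weight versus untreated at 14 days, two replicates.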

[6] = test system: Lindernia pyxidaria; experiment: as above; details: 120 g/10a; treatment seven days after sowing in flooded paddy pot; assessed 14 days after treatment
Summary of the method: as §2

[7] = test system: Monochoria vaginalis; experiment: as above; details: 120 g/10a; treatment seven days after sowing in flooded paddy pot; assessed 14 days after treatment
Summary of the method: as §2

[8] = test system: Scirpus juncoides; experiment: as above; details: 120 g/10a; treatment seven days after sowing in flooded paddy pot; assessed 14 days after treatment
Summary of the method: as §2

[9] = test system: Amaranthus viridis; experiment: Test Example 13: herbicidal effect test by soil treatment in upland field; details: 120 g/10a, 14 days after treatment
Summary of the method: (§3)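 Field alluvial soil in 36 cm^2 pots had 20 seeds of each weed mixed into its top 1 cm. One day after sowing, a water-diluted emulsifiable concentrate was sprayed onto the soil at 100 liter per 10 are (120 g active ingredient per 10 are), with two replicates. Weed suppression (%) was assessed after 14 days.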

[10] = test system: Chenopodium album; experiment: as above; details: 120 g/10a, 14 days after treatment
Summary of the method: as §3

[11] = test system: Echinochloa crus-galli; experiment: as above; details: 120 g/10a, 14 days after treatment
Summary of the method: as §3

[12] = test system: crabgrass; experiment: as above; details: 120 g/10a, 14 days after treatment
Summary of the method: as §3

[13] = test system: Chenopodium album; experiment: Test Example 14: herbicidal effect test by foliage treatment in upland field; details: 7 days after sowing, 120 g/10a, 14 days after treatment
Summary of the method: (§4)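 Dose: 120 g a.i. per 10 are, sprayed in 100 L water per 10 are onto pots seven days post-sowing in alluvial soil. After 14 days, weed dry weight relative to untreated plots gave suppression rate (%); duplicate plots per concentration.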

[14] = test system: crabgrass; experiment: as above; details: 7 days after sowing, 120 g/10a, 14 days after treatment
Summary of the method: as §4

[15] = test system: Amaranthus viridis; experiment: as above; details: 7 days after sowing, 120 g/10a, 14 days after treatment
Summary of the method: as §4

[16] = test system: Echinochloa crus-galli; experiment: as above; details: 7 days after sowing, 120 g/10a, 14 days after treatment
Summary of the method: as §4

Compound | Weed suppression rate (%) Echinochloa crus-galli [1] [%] | Weed suppression rate (%) Lindemia pyxidaria [2] [%] | Weed suppression rate (%) Monochoria vaginalis [3] [%] | Weed suppression rate (%) Scirpus juncoides [4] [%] | Weed suppression rate (%) Echinochloa crus-galli [5] [%] | Weed suppression rate (%) Lindemia pyxidaria [6] [%] | Weed suppression rate (%) Monochoria vaginalis [7] [%] | Weed suppression rate (%) Scirpus juncoides [8] [%] | herbicidal effect, Amaranthus viridis [9] [%] | herbicidal effect, Chenopodium album [10] [%] | herbicidal effect, Echinochloa crus-galli [11] [%] | herbicidal effect, Crabgrass [12] [%] | herbicidal effect, Chenopodium album [13] [%] | herbicidal effect, Crabgrass [14] [%] | herbicidal effect, Amaranthus viridis [15] [%] | herbicidal effect, Echinochloa crus-galli [16] [%]
CC(C)N(C(=O)n1cnn(S(C)(=O)=O)c1=O)c1c(F)cc(F)cc1F [Compound 11-16] | 100 | 100 | 90 | 90 | 100 | 90 | 100 | 100 | 100 | 70 | 100 | 100 | 70 | 100 | 30 | 100
Cc1ccc(S(=O)(=O)n2ncn(C(=O)N(c3ccc(F)cc3F)C(C)C)c2=O)cc1 [Compound 11-637] | 100 | 100 | 100 | 90 | 100 | 90 | 90 | 90 | 40 | 40 | 100 | 90 | 0 | 80 | 0 | 80
CC(C)N(C(=O)n1cnn(S(=O)(=O)C2CC2)c1=O)c1ccc(F)c(F)c1F [Compound 11-194] | 100 | 100 | 100 | 100 | 100 | 100 | 100 | 100 | 100 | 70 | 90 | 90 | 80 | 100 | 90 | 100
CC(C)N(C(=O)n1cnn(S(=O)(=O)C2CCCCC2)c1=O)c1c(F)cc(F)cc1F [Compound 11-298] | 100 | 100 | 100 | 100 | 100 | 80 | 80 | 100 | 60 | 60 | 100 | 100 | 70 | 100 | 60 | 100
CC(C)N(C(=O)n1cnn(S(=O)(=O)c2c(F)cccc2F)c1=O)c1ccccc1 [Compound 11-762] | 90 | 90 | 90 | 40 | 80 | 60 | 90 | 80 | 60 | 60 | 80 | 90 | 60 | 90 | 70 | 90
CC(C)N(C(=O)n1cnn(S(=O)(=O)C(C)C)c1=O)c1cccc(F)c1F [Compound 11-58] | 100 | 100 | 100 | 100 | 100 | 100 | 100 | 100 | 70 | 70 | 100 | 90 | 70 | 100 | 30 | 90
CC(C)N(C(=O)n1cnn(S(=O)(=O)C2CCCCC2)c1=O)c1c(F)cccc1F [Compound 11-296] | 100 | 100 | 70 | 100 | 100 | 80 | 90 | 90 | 60 | 70 | 100 | 100 | 70 | 100 | 90 | 100
